Assays:
[1] = molecular target: Excitatory amino acid transporter 1 (Homo sapiens, UniProt P43003); test: Binding affinity for Excitatory amino acid transporter 1 (EAAT-1) in Glu uptake system
[2] = molecular target: Excitatory amino acid transporter 2 (Homo sapiens, UniProt P43004); test: Binding affinity for Excitatory amino acid transporter 2 (EAAT-2) in Glu uptake system
[3] = molecular target: T1, Excitatory amino acid transporter 3 (Homo sapiens, UniProt P43005); test: Binding affinity for Excitatory amino acid transporter 3 (EAAT-3) in Glu uptake system
T1 sequence (P43005 whole entry): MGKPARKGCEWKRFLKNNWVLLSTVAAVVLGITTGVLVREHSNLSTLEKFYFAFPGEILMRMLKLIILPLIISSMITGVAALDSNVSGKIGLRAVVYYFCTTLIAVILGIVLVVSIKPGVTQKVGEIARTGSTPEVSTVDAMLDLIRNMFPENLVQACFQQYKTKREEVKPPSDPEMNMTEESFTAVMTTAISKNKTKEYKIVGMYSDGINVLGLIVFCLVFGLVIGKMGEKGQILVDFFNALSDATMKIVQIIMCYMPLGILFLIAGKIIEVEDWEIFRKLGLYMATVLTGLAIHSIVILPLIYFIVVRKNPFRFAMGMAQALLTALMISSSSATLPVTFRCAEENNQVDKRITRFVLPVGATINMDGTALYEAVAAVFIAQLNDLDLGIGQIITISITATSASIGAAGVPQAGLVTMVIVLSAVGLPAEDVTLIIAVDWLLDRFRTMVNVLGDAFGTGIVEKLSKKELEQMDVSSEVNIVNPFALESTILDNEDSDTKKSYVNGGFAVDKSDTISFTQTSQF

[4] = Measure of synaptosomal Glu uptake system using [3H]- -D-aspartic acid as radioligand
[5] = molecular target: Glutamate receptor ionotropic, kainate; test: Binding affinity for Ionotropic glutamate receptor using [3H]- kainic acid; format: protein-complex assay, Rattus norvegicus
Glutamate NMDA receptor = test: Binding affinity for N-methyl-D-aspartate glutamate receptor (NMDA) using [3H]- CPP; format: protein-complex assay, Rattus norvegicus
Rattus norvegicus = species: Rattus norvegicus; test: EC50 value was measured in rat cortical wedge preparation; format: functional
[6] = molecular target: Glutamate receptor ionotropic, AMPA (Rattus norvegicus, UniProt P19490+P19491+P19492+P19493)
physchem [7] = test: physchem
physchem [8] = test: physchem; remark: listed apart in the source
physchem [9] = test: physchem; remark: listed apart in the source
[10] = Measure of synaptosomal Glu uptake system using [3H]- -D-aspartic acid as radioligand.; format: functional

Chain of Excitatory amino acid transporter 2 (P43004 whole entry): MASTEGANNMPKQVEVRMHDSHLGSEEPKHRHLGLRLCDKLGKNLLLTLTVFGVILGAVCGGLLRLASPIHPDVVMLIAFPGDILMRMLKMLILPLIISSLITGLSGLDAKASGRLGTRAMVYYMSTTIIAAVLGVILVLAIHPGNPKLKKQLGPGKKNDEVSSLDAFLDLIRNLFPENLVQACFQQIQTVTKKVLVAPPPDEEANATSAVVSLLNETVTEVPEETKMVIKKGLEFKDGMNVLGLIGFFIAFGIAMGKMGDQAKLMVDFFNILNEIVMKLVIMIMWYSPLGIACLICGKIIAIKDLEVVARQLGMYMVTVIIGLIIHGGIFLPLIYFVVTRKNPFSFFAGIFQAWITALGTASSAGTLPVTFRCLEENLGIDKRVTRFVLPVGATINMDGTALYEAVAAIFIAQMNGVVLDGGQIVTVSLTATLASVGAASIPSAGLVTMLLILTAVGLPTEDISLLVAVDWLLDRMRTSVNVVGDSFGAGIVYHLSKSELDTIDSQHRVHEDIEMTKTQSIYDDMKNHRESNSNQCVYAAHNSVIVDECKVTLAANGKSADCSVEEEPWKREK
Chain of Excitatory amino acid transporter 1 (P43003 whole entry): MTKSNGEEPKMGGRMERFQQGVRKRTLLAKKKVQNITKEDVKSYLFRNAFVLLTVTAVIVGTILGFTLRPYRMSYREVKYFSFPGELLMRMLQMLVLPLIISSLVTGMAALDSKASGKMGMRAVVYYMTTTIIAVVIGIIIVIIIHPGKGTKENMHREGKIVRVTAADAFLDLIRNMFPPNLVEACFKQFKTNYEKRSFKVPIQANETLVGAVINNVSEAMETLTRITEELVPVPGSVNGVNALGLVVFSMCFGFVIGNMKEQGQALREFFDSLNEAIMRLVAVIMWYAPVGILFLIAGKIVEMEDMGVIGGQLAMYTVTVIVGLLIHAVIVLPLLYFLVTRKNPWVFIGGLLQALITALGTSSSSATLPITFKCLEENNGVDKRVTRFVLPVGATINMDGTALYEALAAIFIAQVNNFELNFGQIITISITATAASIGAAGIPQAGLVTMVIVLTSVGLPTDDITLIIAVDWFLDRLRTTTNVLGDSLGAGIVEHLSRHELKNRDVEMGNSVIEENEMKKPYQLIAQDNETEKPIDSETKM

Row | SMILES | IC50 [1] [mM] | IC50 [2] [µM] | IC50 [3] [mM] | IC50 [4] [µM] | IC50 [5] [µM] | IC50 (Glutamate NMDA receptor) [µM] | EC50 (Rattus norvegicus) [µM] | IC50 [6] [nM] | pKa (physchem [7]) | pKa (physchem [8]) | pKa (physchem [9]) | IC50 [10] [µM]
1 | Cc1cnc(CC(N)C(=O)O)n1O (stereo not drawn) | > 1 | > 1000 | > 1 | > 200 | > 100 | > 100 | > 1000 | > 100000 |  |  |  | 
2 | Cc1onc(O)c1CC(N)C(=O)O [(R,S)-AMPA] | > 1 | > 1000 | > 1 |  |  |  |  |  |  | 5.12 | 1.94 | > 200
3 | Cc1nnn(O)c1CC(N)C(=O)O (stereo not drawn) | > 1 | 490 | > 1 | > 200 | 90 | > 100 | 15 | 130 | 9.24 | 5.07 | 1.48 | 
4 | Cc1ncn(O)c1CC(N)C(=O)O (stereo not drawn) | > 1 | > 1000 | > 1 | > 200 | > 100 | > 100 | > 1000 | > 100000 | 10.2 | 8.82 | 2.81 | 
5 | Cc1ncc(CC(N)C(=O)O)n1O (stereo not drawn) | > 1 | > 1000 | > 1 | > 200 | > 100 | > 100 | > 1000 | > 100000 |  |  |  | 
6 | NC(Cc1cncn1O)C(=O)O (stereo not drawn) | > 1 | > 1000 | > 1 | > 200 | > 100 | > 100 | > 1000 | > 100000 |  |  |  | 
7 | NC(Cc1conc1O)C(=O)O (stereo not drawn) | 0.27 | 240 | > 1 | > 200 | > 100 | > 100 | 900 | 270 |  |  |  | 

Continued, in another order:

Row | IC50 [1] [mM] | IC50 [2] [µM] | IC50 [3] [mM] | IC50 [4] [µM] | IC50 [5] [µM] | IC50 (Glutamate NMDA receptor) [µM] | EC50 (Rattus norvegicus) [µM] | IC50 [6] [nM] | pKa (physchem [7]) | pKa (physchem [8]) | pKa (physchem [9]) | SMILES | IC50 [10] [µM]
8 | > 1 | > 1000 | > 1 | > 200 | > 100 | > 100 | 586 | 2600 | 9.81 | 5.89 | 2.05 | Cc1cnn(O)c1CC(N)C(=O)O (stereo not drawn) | 
9 | > 1 | > 1000 | > 1 | > 200 | > 100 | > 100 | > 1000 | > 100000 |  |  |  | NC(Cc1nccn1O)C(=O)O (stereo not drawn) | 
10 | > 1 | 430 | > 1 | > 200 | > 100 | > 100 | 280 | 2700 | 9.48 | 5.78 | 1.78 | NC(Cc1ccnn1O)C(=O)O (stereo not drawn) | 
11 | 0.1 | 300 | > 1 | 93 | 47 | > 100 | > 1000 | 150 |  |  |  | NC(Cc1cnnn1O)C(=O)O (stereo not drawn) | 
